# From PubChem BioAssay AID2060887 (Molecular Pharmacology Branch, DTP, NCI, 2025)
# System: 782815-120-R-J1-PDC complex spheroid viability
# Test: Anticancer human tumor 782815-120-R-J1-PDC patient-derived colon adenocarcinoma cell line growth inhibition [RAS]
# Conditions: for IC50: curve of first compound; for viability, T/C: stronger effect = lower value
# How it was run: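 Tumour cells grown as complex spheroids with HUVEC endothelial cells and mesenchymal stem cells, treated with RAS pathway inhibitor combinations. Each agent spans half-log steps from near clinical Cmax, or 10 microM where Cmax is unknown.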
# 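Note: spheroids exposed to compounds for 7 days before reading.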
# 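Throughout, for viability, T/C: 100% = DMSO vehicle control viability.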
compound,measurement,setting,value
CC1(C)CCC(Nc2ncc(C(F)(F)F)c(-c3c[nH]c4c(P(C)(C)=O)c(C#N)ccc34)n2)CN1 (centres undefined) + C#Cc1c(F)ccc2cc(O)cc(-c3ncc4c(N5CC6CCC(C5)N6)nc(OCC56CCCN5CC(F)C6)nc4c3F)c12,IC50,second compound 0.0316 µM,> 300 nM
same,IC50,second compound 0.1 µM,> 300 nM
same,IC50,second compound 0.316 µM,> 300 nM
same,IC50,second compound 1 µM,> 300 nM
same,IC50,second compound 3.16 µM,> 300 nM
same,IC50,second compound 10 µM,> 300 nM
same,"viability, T/C","second compound 0.0316 µM, first compound 0.000949 µM",98.2%
same,"viability, T/C","second compound 0.0316 µM, first compound 0.003 µM",101%
same,"viability, T/C","second compound 0.0316 µM, first compound 0.00949 µM",90.6%
same,"viability, T/C","second compound 0.0316 µM, first compound 0.03 µM",65.4%
same,"viability, T/C","second compound 0.0316 µM, first compound 0.0949 µM",58.1%
same,"viability, T/C","second compound 0.0316 µM, first compound 0.3 µM",60.2%
same,"viability, T/C","second compound 0.1 µM, first compound 0.000949 µM",93.2%
same,"viability, T/C","second compound 0.1 µM, first compound 0.003 µM",98.4%
same,"viability, T/C","second compound 0.1 µM, first compound 0.00949 µM",84.4%
same,"viability, T/C","second compound 0.1 µM, first compound 0.03 µM",70.2%
same,"viability, T/C","second compound 0.1 µM, first compound 0.0949 µM",61.2%
same,"viability, T/C","second compound 0.1 µM, first compound 0.3 µM",56.9%
same,"viability, T/C","second compound 0.316 µM, first compound 0.000949 µM",96.5%
same,"viability, T/C","second compound 0.316 µM, first compound 0.003 µM",92.9%
same,"viability, T/C","second compound 0.316 µM, first compound 0.00949 µM",90.4%
same,"viability, T/C","second compound 0.316 µM, first compound 0.03 µM",64.8%
same,"viability, T/C","second compound 0.316 µM, first compound 0.0949 µM",61.8%
same,"viability, T/C","second compound 0.316 µM, first compound 0.3 µM",57.9%
same,"viability, T/C","second compound 1 µM, first compound 0.000949 µM",95%
same,"viability, T/C","second compound 1 µM, first compound 0.003 µM",99.6%
same,"viability, T/C","second compound 1 µM, first compound 0.00949 µM",74.7%
same,"viability, T/C","second compound 1 µM, first compound 0.03 µM",65.2%
same,"viability, T/C","second compound 1 µM, first compound 0.0949 µM",64.3%
same,"viability, T/C","second compound 1 µM, first compound 0.3 µM",58.5%
same,"viability, T/C","second compound 3.16 µM, first compound 0.000949 µM",90.8%
same,"viability, T/C","second compound 3.16 µM, first compound 0.003 µM",94.1%
same,"viability, T/C","second compound 3.16 µM, first compound 0.00949 µM",80%
same,"viability, T/C","second compound 3.16 µM, first compound 0.03 µM",65.2%
same,"viability, T/C","second compound 3.16 µM, first compound 0.0949 µM",57.6%
same,"viability, T/C","second compound 3.16 µM, first compound 0.3 µM",63.5%
same,"viability, T/C","second compound 10 µM, first compound 0.000949 µM",93.9%
same,"viability, T/C","second compound 10 µM, first compound 0.003 µM",98.8%
same,"viability, T/C","second compound 10 µM, first compound 0.00949 µM",75.4%
same,"viability, T/C","second compound 10 µM, first compound 0.03 µM",69.6%
same,"viability, T/C","second compound 10 µM, first compound 0.0949 µM",65%
same,"viability, T/C","second compound 10 µM, first compound 0.3 µM",60.4%
CCC(CC)c1cc(NC2CCC(N)C2)n2nccc2n1 (centres undefined) + C#Cc1c(F)ccc2cc(O)cc(-c3ncc4c(N5CC6CCC(C5)N6)nc(OCC56CCCN5CC(F)C6)nc4c3F)c12,IC50,second compound 0.0316 µM,2500 nM
same,IC50,second compound 0.1 µM,2630 nM
same,IC50,second compound 0.316 µM,2820 nM
same,IC50,second compound 1 µM,2390 nM
same,IC50,second compound 3.16 µM,2560 nM
same,IC50,second compound 10 µM,2360 nM
same,"viability, T/C","second compound 0.0316 µM, first compound 0.0316 µM",93.3%
same,"viability, T/C","second compound 0.0316 µM, first compound 0.1 µM",90.7%
same,"viability, T/C","second compound 0.0316 µM, first compound 0.316 µM",99.4%
same,"viability, T/C","second compound 0.0316 µM, first compound 1 µM",100%
same,"viability, T/C","second compound 0.0316 µM, first compound 3.16 µM",38.2%
same,"viability, T/C","second compound 0.0316 µM, first compound 10 µM",1.67%
same,"viability, T/C","second compound 0.1 µM, first compound 0.0316 µM",99.2%
same,"viability, T/C","second compound 0.1 µM, first compound 0.1 µM",103%
same,"viability, T/C","second compound 0.1 µM, first compound 0.316 µM",96.9%
same,"viability, T/C","second compound 0.1 µM, first compound 1 µM",104%
same,"viability, T/C","second compound 0.1 µM, first compound 3.16 µM",40.3%
same,"viability, T/C","second compound 0.1 µM, first compound 10 µM",1.65%
same,"viability, T/C","second compound 0.316 µM, first compound 0.0316 µM",105%
same,"viability, T/C","second compound 0.316 µM, first compound 0.1 µM",109%
same,"viability, T/C","second compound 0.316 µM, first compound 0.316 µM",103%
same,"viability, T/C","second compound 0.316 µM, first compound 1 µM",111%
same,"viability, T/C","second compound 0.316 µM, first compound 3.16 µM",43.7%
same,"viability, T/C","second compound 0.316 µM, first compound 10 µM",2.09%
same,"viability, T/C","second compound 1 µM, first compound 0.0316 µM",96.3%
same,"viability, T/C","second compound 1 µM, first compound 0.1 µM",90.1%
same,"viability, T/C","second compound 1 µM, first compound 0.316 µM",101%
same,"viability, T/C","second compound 1 µM, first compound 1 µM",105%
same,"viability, T/C","second compound 1 µM, first compound 3.16 µM",34.4%
same,"viability, T/C","second compound 1 µM, first compound 10 µM",1.52%
same,"viability, T/C","second compound 3.16 µM, first compound 0.0316 µM",104%
same,"viability, T/C","second compound 3.16 µM, first compound 0.1 µM",95%
same,"viability, T/C","second compound 3.16 µM, first compound 0.316 µM",91.2%
same,"viability, T/C","second compound 3.16 µM, first compound 1 µM",99%
same,"viability, T/C","second compound 3.16 µM, first compound 3.16 µM",39.3%
same,"viability, T/C","second compound 3.16 µM, first compound 10 µM",1.84%
same,"viability, T/C","second compound 10 µM, first compound 0.0316 µM",106%
same,"viability, T/C","second compound 10 µM, first compound 0.1 µM",90.6%
same,"viability, T/C","second compound 10 µM, first compound 0.316 µM",92.2%
same,"viability, T/C","second compound 10 µM, first compound 1 µM",103%
same,"viability, T/C","second compound 10 µM, first compound 3.16 µM",33.7%
same,"viability, T/C","second compound 10 µM, first compound 10 µM",1.27%
